Laboratory results as given in US10745814B2, “Enzymatic nucleic acid synthesis” (President and Fellows of Harvard College, priority 2016, dated 2020).

Target: TdT (Bos taurus, UniProt P06526)
Experiment: Screen of nucleotides and nucleotide analogues as substrates for TdT-based DNA synthesis
Format: biochemical
Settings: for efficiency as substrates of TdT compared to natural counterparts: analogues more positively charged than natural counterparts; for behavior with respect to TdT-based DNA synthesis (extension efficiency, rate, and extension length distribution): natural nucleotides compared with each other
Description: Nucleotide analogues may be used as substrates for enzymatic synthesis using TdT. In the general scheme of the presently disclosed methods, the distribution of extension length by TdT is important to ensure efficient and reliable encoding of information into DNA.
These analogues include, but are not limited to, 5-Aminoallyl-dUTP and 5-Propargylamino-dUTP.

Chain of TdT (P06526 whole entry): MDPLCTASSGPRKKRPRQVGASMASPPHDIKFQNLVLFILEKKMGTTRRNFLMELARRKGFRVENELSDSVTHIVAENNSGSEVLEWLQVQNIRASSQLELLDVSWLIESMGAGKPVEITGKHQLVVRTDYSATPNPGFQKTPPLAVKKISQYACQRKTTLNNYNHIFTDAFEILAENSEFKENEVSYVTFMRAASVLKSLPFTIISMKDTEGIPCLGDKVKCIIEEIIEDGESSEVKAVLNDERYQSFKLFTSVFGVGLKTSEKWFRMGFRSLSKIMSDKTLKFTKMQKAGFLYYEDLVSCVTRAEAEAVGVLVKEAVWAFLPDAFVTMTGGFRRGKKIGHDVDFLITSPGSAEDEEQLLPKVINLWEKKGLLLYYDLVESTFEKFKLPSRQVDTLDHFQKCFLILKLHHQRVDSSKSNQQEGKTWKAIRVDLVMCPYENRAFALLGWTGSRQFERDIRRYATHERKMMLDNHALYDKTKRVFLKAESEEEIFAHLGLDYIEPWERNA

SMILES: NCC#Cc1cn(C2CC(O)C(COP(=O)(O)OP(=O)(O)OP(=O)(O)O)O2)c(=O)[nH]c1=O (centres unmarked) [5-Propargylamino-dUTP]
- efficiency as substrates of TdT compared to natural counterparts: far more efficient substrates of TdT

SMILES: Nc1ccn([C@H]2C[C@H](O)[C@@H](COP(=O)(O)OP(=O)(O)OP(=O)(O)O)O2)c(=O)n1 [dCTP]
- behavior with respect to TdT-based DNA synthesis (extension efficiency, rate, and extension length distribution): most optimal behavior

SMILES: Nc1nc2c(ncn2[C@H]2C[C@H](O)[C@@H](COP(=O)(O)OP(=O)(O)OP(=O)(O)O)O2)c(=O)[nH]1 [dGTP]
- behavior with respect to TdT-based DNA synthesis (extension efficiency, rate, and extension length distribution): poorest behavior

SMILES: NC/C=C/c1cn(C2CC(O)C(COP(=O)(O)OP(=O)(O)OP(=O)(O)O)O2)c(=O)[nH]c1=O (centres unmarked) [5-Aminoallyl-dUTP]
- efficiency as substrates of TdT compared to natural counterparts: far more efficient substrates of TdT

SMILES: Nc1ncnc2c1ncn2[C@H]1C[C@H](O)[C@@H](COP(=O)(O)OP(=O)(O)OP(=O)(O)O)O1 [dATP]
- behavior with respect to TdT-based DNA synthesis (extension efficiency, rate, and extension length distribution): poorest behavior
